The values that follow come from paper PMC6920776, “Exploring Biological Activity of 4-Oxo-4H-furo[2,3-h]chromene Derivatives as Potential Multi-Target-Directed Ligands Inhibiting Cholinesterases, β-Secretase, Cyclooxygenase-2, and Lipoxygenase-5/15” (Biomolecules, 2019).

Where “and” joins values, the source holds several entries; their conditions need not be identical. Identical values can stand only once.

One may read the IC50 as the concentration that inhibits the measured activity by half.

A short description of assay [1]: DPPH radical scavenging assay. Conditions: 45 min in the dark, triplicate. The protocol: The DPPH radical scavenging activity of compounds 2a–i and 3a–i was evaluated following the literature method by Zhu et al.. The compounds were evaluated against ascorbic acid (Sigma Aldrich, Saint Louis, Missouri, USA) as a positive control. Various concentrations of the test compounds and control (0 µM to 40 µM) in DMSO were mixed with a solution of DPPH (0.20 mM) in methanol. The mixtures were incubated in the dark for 45 min and then the absorbances were recorded at 512 nm using Varioskan flash microplate spectrophotometer reader. All tests and analyses were run in triplicate and averaged. The inhibition was calculated in terms of percentage using the formula below: DPPH radical scavenged (%)=AbC − AbS/AbC×100 where AbC is absorbance of control and AbS the absorbance of the test sample.

The target in assay [2] is T1, BChE (Homo sapiens, UniProt P06276).
T1 construct: purchased Cloud-Clone Corp., through BIOCOM Africa (Pty) Ltd RPC348Hu0 2_100
Description: biochemical. Conditions: Ellman's method, triplicate. (In general: In Ellman's method for cholinesterases, released thiocholine reacts with DTNB.)
Description: Their anti-AChE and BChE activities were determined by spectrophotometric Ellman’s method [42]. […] The mixtures were incubated for 15 min at RT. The reaction was initiated by adding 10 µL of a mixture solution of 5 mM 5,50-dithio-bis-nitrobenzoic acid (DTNB) in 50 mM tris buffer (pH 7.7) and 10 µL acetylthiocholine (ASCh) (5 mM) in 50 mM tris buffer, pH 7.7. The hydrolysis of ASCh was determined by monitoring the formation of the yellow 5-thio-2-nitrobenzoate anion resulting from reaction of DTNB with thiocholines (SCh).
The IC50 values were determined graphically from inhibition curves (inhibitor concentration and absorbance) using the graph pad prism.

For assay [3], the target named is AChE (Homo sapiens, UniProt P22303). Put plainly: biochemical. As to conditions: for Selectivity index (SI): SI = IC50 (AChE)/IC50 (BChE); for IC50: recombinant human AChE, Ellman's method, triplicate.
For assay [4], the target named is T2, soybean lipoxygenases-15 (LOX-15) (Glycine max, UniProt P08170).
T2 construct: purchased Cayman Chemicals 760700
T2 sequence (P08170 1-839): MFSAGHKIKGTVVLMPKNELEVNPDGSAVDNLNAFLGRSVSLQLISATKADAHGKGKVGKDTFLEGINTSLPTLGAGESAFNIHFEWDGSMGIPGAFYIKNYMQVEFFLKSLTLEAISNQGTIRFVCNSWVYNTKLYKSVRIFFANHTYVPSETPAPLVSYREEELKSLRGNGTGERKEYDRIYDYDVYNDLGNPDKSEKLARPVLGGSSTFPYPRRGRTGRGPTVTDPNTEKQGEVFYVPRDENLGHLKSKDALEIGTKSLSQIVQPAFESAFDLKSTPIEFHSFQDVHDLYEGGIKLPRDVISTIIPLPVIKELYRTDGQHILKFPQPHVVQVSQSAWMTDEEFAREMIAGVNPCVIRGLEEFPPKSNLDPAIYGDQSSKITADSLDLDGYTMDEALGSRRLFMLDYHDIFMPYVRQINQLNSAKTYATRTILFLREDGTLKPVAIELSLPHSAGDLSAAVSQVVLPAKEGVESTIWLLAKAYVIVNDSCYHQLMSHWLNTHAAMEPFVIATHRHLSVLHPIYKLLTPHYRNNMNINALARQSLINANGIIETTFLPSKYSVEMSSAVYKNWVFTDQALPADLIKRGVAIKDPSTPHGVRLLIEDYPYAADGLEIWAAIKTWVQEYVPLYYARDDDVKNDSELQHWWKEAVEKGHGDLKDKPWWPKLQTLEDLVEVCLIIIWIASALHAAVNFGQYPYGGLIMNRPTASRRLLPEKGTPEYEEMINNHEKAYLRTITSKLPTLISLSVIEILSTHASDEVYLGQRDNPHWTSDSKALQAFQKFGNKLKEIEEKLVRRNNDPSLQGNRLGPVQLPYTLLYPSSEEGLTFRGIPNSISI
Put plainly: Soybean LOX-15 inhibitory assay. The class given is biochemical.
Description: Stock solutions of the test samples prepared in DMSO were further diluted with 50 mM Tris buffer of pH 7.7 to obtain concentrations of 0.01, 0.1, 1, 10, and 100 µM. The cells of a 96-well plate where arranged as follows: two wells taken as blanks (100 µL 50mM Tris buffer pH, 7.7), two wells taken as enzyme controls (90 µL of 15-LO Standard and 10 µL of DMSO), and two as 100% initial activity wells (90 µL lipoxygenase enzyme solution and 10 µL tris buffer). Then, 90 µL of lipoxygenase enzyme solution and 10 µL of each test compound (and reference standards) from the above concentrations were added to the other wells of a 96-well plate, and the plate was incubated for 5 min at room temperature. The reaction was initiated by addition of 10 µL of the arachidonic acid to each well containing the assay mixtures. The 96-well plate was shaken for 5 min on a shaker, and 100 µL of the chromogen (solution of equal volume developing reagent 1 and 2) was added to each well to initiate the reaction. The plate was again shaken for 5 min and the absorbance read at 490 nm in a Varioskan flash microplate spectrophotometer reader. The inhibitory concentration was expressed as a percentage using the formula below. Inhibitory concentration = AInitial activity −(ASample − ABlank sample)/AInitial activity×100 where ASample is the absorbance of the reaction mixture of the test sample, ABlank sample is the absorbance of the reaction mixture containing all reagents except enzyme, and AInitial activity is the absorbance of 100% initial activity.

The target in assay [5] is T3, COX-2 (Homo sapiens, UniProt P35354).
T3 construct: purchased Bio Vision K547
T3 sequence (P35354 18-604): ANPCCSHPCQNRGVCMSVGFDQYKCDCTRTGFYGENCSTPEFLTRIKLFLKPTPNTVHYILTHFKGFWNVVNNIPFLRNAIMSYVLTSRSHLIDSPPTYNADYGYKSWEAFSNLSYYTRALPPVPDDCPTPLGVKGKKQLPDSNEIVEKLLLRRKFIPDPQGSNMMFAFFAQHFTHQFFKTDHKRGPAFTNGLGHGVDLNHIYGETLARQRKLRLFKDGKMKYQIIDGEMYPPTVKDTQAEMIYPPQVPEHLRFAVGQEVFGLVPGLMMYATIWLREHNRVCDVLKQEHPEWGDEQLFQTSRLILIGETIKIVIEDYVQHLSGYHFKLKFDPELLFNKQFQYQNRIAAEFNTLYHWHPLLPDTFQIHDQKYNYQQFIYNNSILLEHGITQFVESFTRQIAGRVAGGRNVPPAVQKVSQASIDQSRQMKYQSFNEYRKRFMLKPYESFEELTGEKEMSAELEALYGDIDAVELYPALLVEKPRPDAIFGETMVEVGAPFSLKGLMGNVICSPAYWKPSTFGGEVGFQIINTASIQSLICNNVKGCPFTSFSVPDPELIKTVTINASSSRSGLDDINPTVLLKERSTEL
Description: biochemical. Conditions: duplicate runs.
Description: The reagents for the COX-2 assay were prepared according to the standard protocol enclosed in the Cyclooxygenase inhibitor screening kit (Item No. K547; Bio Vision, Milpitas Blvd, Milpitas, CA USA). […] The assay mixtures in a 96-well plate were distributed as follows: two wells taken as enzyme control (10µL assay buffer) and two wells as inhibitor control (2 µL of celecoxib and 8 µL of COX assay buffer). Ten microliters of the test compounds concentrations and those of celecoxib were added to the remaining wells with the aid of a multi-channel pipette. Then, 80 µL of the reaction mix (a mixture of 76 µL COX assay buffer, 1 µL of COX probe, 2 µL of diluted COX cofactor and 1 µL of COX-2 enzyme) were added to the reaction mixture. The assay mixtures in the 96-well plate were incubated for 5 min. The reactions were initiated by the addition of 10 µL of diluted arachidonic acid and sodium hydroxide solution (10 µL of arachidonic acid and 90 µL of sodium hydroxide) to each well. The absorbance was measured using a Varioskan flash microplate spectrophotometer, and the IC50 was calculated with the aid of a graph pad prism

T1 sequence (P06276 29-602): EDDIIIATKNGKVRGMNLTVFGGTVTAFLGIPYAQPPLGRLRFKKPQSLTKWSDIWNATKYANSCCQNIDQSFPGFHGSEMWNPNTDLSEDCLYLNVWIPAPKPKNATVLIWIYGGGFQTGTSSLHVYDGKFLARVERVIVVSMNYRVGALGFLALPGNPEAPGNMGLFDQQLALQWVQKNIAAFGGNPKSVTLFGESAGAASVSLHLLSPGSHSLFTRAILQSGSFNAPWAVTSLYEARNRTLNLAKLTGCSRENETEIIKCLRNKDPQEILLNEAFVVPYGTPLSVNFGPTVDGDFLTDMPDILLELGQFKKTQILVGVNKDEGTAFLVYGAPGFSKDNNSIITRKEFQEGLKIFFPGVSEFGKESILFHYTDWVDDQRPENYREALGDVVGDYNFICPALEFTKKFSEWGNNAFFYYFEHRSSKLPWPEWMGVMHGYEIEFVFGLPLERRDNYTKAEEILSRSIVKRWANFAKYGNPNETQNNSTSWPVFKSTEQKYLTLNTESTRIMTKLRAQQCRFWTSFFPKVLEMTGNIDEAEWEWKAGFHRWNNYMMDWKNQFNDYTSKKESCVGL
Sequence of AChE (P22303 32-614): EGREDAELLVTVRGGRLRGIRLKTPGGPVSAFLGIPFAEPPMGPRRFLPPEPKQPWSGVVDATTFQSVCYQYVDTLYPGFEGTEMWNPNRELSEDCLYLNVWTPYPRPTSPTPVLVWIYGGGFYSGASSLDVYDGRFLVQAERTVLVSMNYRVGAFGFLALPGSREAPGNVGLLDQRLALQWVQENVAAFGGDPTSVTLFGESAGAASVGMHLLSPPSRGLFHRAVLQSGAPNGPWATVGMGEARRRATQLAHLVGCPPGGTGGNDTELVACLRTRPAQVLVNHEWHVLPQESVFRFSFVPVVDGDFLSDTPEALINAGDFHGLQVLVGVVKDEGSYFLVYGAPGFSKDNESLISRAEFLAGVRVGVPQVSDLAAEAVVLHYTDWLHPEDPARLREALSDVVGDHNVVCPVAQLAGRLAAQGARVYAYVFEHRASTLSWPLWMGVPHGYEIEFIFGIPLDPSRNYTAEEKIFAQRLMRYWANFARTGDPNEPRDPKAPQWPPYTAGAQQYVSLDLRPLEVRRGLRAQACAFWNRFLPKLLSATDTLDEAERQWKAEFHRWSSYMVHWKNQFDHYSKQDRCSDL

In turn, `O=C1O[C@H]([C@@H](O)CO)C(O)=C1O` [Ascorbic acid, ascorbic acid, reference compound] displayed an IC50 in assay [1] of 4.6 ± 0.01 µM.

As to `O=Cc1coc2c(ccc3oc(-c4ccccc4)cc32)c1=O` [Compound 2a, 4-Oxo-8-phenyl-4H-furo[2,3-h]chromene-3-carbaldehyde], the IC50 came to 34.2 ± 0.02 µM in assay [2]; 25.1 ± 0.04 µM in assay [3]; 12.5 ± 0.03 µM in assay [4]; 10.1 ± 0.03 µM in assay [1]; 25.6 ± 0.01 µM in assay [5]. Also, the “Selectivity index (SI)” value in assay [3] turned out to be 0.8.

`O=Cc1coc2c(ccc3oc(-c4cccc(F)c4)cc32)c1=O` [Compound 2b, 8-(3-Fluorophenyl)-4-oxo-4H-furo[2,3-h]chromene-3-carbaldehyde]: the IC50 in assay [2] was found to be 9.2 ± 0.01 µM; in assay [3] it was 15.2 ± 0.03 µM; in assay [4], 18.6 ± 0.01 µM; in assay [1], 27.6 ± 0.02 µM; in assay [5], 43.7 ± 0.01 µM. Also, the “Selectivity index (SI)” value in assay [3] is given as 1.7.

As to `O=Cc1coc2c(ccc3oc(-c4ccc(F)cc4)cc32)c1=O` [Compound 2c, 8-(4-Fluorophenyl)-4-oxo-4H-furo[2,3-h]chromene-3-carbaldehyde], the IC50 in assay [2] worked out at 28.3 ± 0.03 µM; in assay [3], 30.4 ± 0.01 µM; in assay [4], 14.3 ± 0.01 µM; in assay [1] it was 7.5 ± 0.02 µM; in assay [5] it was 15.8 ± 0.03 µM. The “Selectivity index (SI)” value in assay [3] is on record as 1.1.

For `O=Cc1coc2c(ccc3oc(-c4cccc(Cl)c4)cc32)c1=O` [Compound 2d, 8-(3-Chlorophenyl)-4-oxo-4H-furo[2,3-h]chromene-3-carbaldehyde], the IC50 in assay [2] is 13.2 ± 0.05 µM; in assay [3], 19.2 µM and 19.8 µM; in assay [4] it was 22.9 ± 0.02 µM; in assay [1], 29.1 ± 0.01 µM; in assay [5], 23.1 ± 0.02 µM. Further, in assay [3], the “Selectivity index (SI)” value stood at 1.5.

For the compound `O=Cc1coc2c(ccc3oc(-c4ccc(Cl)cc4)cc32)c1=O` [Compound 2e, 8-(4-Chlorophenyl)-4-oxo-4H-furo[2,3-h]chromene-3-carbaldehyde], the IC50 in assay [2] is 32.6 ± 0.02 µM; in assay [3], 27.1 ± 0.04 µM; in assay [4] it was 15.2 ± 0.04 µM; in assay [1], 19.9 ± 0.01 µM; in assay [5] it was 18.6 ± 0.01 µM. The “Selectivity index (SI)” value in assay [3] is 0.8.

As to `O=Cc1coc2c(ccc3oc(C4=CCCCC4)cc32)c1=O` [Compound 2i, 8-(Cyclohex-1-en-1-yl)-4-oxo-4H-furo[2,3-h]chromene-3-carbaldehyde], the IC50 in assay [2] worked out at 31.6 ± 0.02 µM; in assay [3], 15.3 ± 0.03 µM; in assay [4], 21.5 ± 0.02 µM; in assay [1], 15.9 ± 0.02 µM; in assay [5], 12.1 ± 0.01 µM. Besides, the “Selectivity index (SI)” value in assay [3] stood at 0.5.

As for `O=c1c(C=NNc2ccc(C(F)(F)F)cc2)coc2c1ccc1oc(-c3ccccc3)cc12` [Compound 3a], the half-inhibitory concentration (IC50) in assay [2] was found to be 18.7 ± 0.03 µM; in assay [3], 15.4 ± 0.01 µM; in assay [4], 16.3 ± 0.01 µM; in assay [1], 15.3 ± 0.01 µM; in assay [5], 29.7 ± 0.02 µM. Also, in assay [3], the “Selectivity index (SI)” value was determined as 0.8.

With `O=c1c(C=NNc2ccc(C(F)(F)F)cc2)coc2c1ccc1oc(-c3cccc(Cl)c3)cc12` [Compound 3d], the IC50 worked out at 30.1 ± 0.03 µM in assay [2]; 24.3 ± 0.03 µM in assay [3]; 11.8 ± 0.03 µM in assay [4]; 32.5 ± 0.03 µM in assay [1]; 30.2 ± 0.03 µM in assay [5]. Further, in assay [3], the “Selectivity index (SI)” value is recorded as 0.8.

On to `Cc1ccc(-c2cc3c(ccc4c(=O)c(C=NNc5ccc(C(F)(F)F)cc5)coc43)o2)cc1` [Compound 3h], for which the IC50 in assay [2] was determined as 14.2 µM; in assay [3] it was 9.1 ± 0.02 µM; in assay [4], 18.6 ± 0.03 µM; in assay [1] it was 16.3 ± 0.03 µM; in assay [5] it was 22.4 ± 0.01 µM. Moreover, the “Selectivity index (SI)” value in assay [3] was determined as 0.6.
